Test results: patent US10196357B2, “Biaryl compositions and methods for modulating a kinase cascade” (Athenex, Inc., priority 2007, dated 2019)

Assays:
EGFR(h) = EGFR(h) (Homo sapiens, UniProt P00533); assay: isolated kinase activity, EGFR; type: biochemical; settings: compound @ 10 μM
From the text: (§1) Table 8 illustrates percent activity of isolated kinases in the presence of the AstraZeneca ATP-competitive inhibitor (KX2-328, AZ-28) or KX2-391 relative to control (untreated) isolated kinases.

FGFR2(h) = FGFR2(h) (Homo sapiens, UniProt P21802); assay: isolated kinase activity, FGFR2; type: biochemical; settings: compound @ 10 μM
From the text: as §1

IGF-1R(h) = IGF-1R(h) (Homo sapiens, UniProt P08069); assay: isolated kinase activity, IGF-1R; type: biochemical; settings: compound @ 10 μM
Chain of IGF-1R(h) (P08069 31-1367): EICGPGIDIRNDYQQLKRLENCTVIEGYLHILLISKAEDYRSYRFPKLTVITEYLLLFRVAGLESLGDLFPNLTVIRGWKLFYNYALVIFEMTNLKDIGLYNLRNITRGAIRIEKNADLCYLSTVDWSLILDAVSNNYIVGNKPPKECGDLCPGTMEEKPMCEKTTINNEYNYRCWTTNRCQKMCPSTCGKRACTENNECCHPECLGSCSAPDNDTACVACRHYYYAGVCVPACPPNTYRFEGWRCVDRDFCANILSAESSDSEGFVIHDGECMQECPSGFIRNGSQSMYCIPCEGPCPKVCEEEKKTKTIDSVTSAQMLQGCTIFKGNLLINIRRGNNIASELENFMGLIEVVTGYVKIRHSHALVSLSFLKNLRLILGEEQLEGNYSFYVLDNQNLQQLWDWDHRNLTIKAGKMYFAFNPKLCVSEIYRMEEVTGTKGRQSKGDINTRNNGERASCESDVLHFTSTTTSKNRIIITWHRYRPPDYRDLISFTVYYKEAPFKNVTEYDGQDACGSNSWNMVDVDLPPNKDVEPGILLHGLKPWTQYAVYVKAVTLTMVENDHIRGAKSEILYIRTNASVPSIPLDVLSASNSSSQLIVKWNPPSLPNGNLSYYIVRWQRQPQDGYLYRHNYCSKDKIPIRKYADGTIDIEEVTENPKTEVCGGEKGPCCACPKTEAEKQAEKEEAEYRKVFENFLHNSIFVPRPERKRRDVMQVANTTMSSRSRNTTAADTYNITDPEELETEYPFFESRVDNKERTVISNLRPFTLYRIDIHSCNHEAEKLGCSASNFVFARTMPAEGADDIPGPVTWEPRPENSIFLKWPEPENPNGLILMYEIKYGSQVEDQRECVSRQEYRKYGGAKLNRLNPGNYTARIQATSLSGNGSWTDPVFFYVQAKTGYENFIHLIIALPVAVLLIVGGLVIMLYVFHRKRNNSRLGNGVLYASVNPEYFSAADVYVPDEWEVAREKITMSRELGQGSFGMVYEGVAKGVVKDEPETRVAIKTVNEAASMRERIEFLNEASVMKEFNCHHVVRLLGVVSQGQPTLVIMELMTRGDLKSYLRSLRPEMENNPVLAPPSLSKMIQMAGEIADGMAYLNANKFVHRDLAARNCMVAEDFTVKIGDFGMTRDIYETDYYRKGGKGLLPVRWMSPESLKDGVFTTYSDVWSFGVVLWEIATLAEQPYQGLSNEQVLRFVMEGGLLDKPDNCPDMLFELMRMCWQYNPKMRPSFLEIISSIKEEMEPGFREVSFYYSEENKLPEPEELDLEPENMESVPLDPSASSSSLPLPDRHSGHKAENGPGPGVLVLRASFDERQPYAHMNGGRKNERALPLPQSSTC
From the text: as §1

IR(h) = IR(h) (Homo sapiens, UniProt P06213); assay: isolated kinase activity, IR; type: biochemical; settings: compound @ 10 μM
Chain of IR(h) (P06213 28-1382): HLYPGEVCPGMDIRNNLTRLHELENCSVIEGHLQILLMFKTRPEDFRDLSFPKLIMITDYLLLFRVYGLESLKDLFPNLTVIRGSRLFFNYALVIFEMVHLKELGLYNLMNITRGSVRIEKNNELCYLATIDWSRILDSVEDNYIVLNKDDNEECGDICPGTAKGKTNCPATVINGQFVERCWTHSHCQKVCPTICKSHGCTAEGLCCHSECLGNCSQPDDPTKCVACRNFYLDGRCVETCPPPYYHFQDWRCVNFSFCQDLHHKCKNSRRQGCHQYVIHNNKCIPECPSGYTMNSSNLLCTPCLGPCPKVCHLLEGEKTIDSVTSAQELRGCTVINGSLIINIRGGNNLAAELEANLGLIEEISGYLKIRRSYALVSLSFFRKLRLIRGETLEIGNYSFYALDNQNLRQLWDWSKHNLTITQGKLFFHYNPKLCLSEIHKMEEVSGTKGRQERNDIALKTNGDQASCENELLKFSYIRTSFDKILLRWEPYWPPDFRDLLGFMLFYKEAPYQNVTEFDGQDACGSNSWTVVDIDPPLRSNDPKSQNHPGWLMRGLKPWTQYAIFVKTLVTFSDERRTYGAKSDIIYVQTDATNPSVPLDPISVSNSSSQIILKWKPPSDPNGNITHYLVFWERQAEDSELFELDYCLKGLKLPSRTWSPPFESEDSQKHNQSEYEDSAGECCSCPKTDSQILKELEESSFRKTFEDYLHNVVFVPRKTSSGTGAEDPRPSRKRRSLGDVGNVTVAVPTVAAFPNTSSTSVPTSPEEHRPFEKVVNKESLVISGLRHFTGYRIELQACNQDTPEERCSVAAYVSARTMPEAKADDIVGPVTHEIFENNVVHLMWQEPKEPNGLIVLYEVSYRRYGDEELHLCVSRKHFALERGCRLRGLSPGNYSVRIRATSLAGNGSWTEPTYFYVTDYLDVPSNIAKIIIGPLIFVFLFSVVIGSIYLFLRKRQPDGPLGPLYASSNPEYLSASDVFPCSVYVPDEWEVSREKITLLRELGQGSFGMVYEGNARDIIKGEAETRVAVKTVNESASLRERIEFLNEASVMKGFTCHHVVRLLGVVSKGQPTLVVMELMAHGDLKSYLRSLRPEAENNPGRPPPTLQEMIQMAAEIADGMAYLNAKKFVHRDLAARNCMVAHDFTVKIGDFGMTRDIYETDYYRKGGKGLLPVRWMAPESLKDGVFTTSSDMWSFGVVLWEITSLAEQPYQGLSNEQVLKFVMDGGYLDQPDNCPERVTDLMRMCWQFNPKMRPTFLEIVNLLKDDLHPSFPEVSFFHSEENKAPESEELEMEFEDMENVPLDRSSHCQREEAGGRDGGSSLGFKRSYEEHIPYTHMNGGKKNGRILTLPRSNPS
From the text: as §1

MAPK2(h) = MAPK2(h) (Homo sapiens, UniProt P28482); assay: isolated kinase activity, MAPK2; type: biochemical; settings: compound @ 10 μM
Chain of MAPK2(h) (P28482 whole entry): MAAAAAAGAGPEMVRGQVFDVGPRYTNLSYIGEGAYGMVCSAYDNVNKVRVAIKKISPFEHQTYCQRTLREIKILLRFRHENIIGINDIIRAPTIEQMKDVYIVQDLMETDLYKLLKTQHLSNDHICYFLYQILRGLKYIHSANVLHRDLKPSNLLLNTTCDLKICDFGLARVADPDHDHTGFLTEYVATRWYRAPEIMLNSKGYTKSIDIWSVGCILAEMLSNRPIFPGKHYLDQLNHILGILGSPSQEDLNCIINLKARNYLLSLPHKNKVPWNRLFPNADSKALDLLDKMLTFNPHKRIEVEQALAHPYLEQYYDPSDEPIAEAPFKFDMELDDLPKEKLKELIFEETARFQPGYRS
From the text: as §1

PDGFRβ(h) = PDGFRβ(h) (Homo sapiens, UniProt P09619); assay: isolated kinase activity, PDGFRβ; type: biochemical; settings: compound @ 10 μM
From the text: as §1

Yes(h) = Yes(h) (Homo sapiens, UniProt P07947); assay: isolated kinase activity, Yes; type: biochemical; settings: compound @ 10 μM
Chain of Yes(h) (P07947 whole entry): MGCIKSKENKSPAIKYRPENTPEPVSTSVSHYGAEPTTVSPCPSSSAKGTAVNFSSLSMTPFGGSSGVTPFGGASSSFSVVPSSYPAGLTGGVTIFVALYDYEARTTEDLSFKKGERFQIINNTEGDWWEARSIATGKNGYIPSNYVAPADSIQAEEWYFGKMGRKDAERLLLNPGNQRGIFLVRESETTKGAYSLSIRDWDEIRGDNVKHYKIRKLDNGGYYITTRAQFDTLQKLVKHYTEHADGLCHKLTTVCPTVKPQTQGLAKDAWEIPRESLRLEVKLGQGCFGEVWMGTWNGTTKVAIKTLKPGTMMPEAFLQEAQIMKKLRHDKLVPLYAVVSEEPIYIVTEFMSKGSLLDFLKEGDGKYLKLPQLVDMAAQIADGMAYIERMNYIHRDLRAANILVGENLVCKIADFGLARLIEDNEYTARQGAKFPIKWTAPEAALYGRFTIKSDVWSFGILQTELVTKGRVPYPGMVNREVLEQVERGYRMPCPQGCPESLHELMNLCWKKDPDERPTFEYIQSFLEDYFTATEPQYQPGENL
From the text: as §1

PI3 kinase = assay: isolated kinase activity, PI3 kinase; type: biochemical; settings: compound @ 10 μM
From the text: as §1

Paxillin Y-31 = assay: intracellular phosphorylation, Paxillin Y-31; type: cell-based; settings: c-Src527F/NIH-3T3 cells
Protocol: (§2) HT29 (colon cancer) and c-Src527F/NIH-3T3 (Src transformed) cell lines were treated with KX2-391 or with AstraZeneca's ATP competitive Src inhibitor AZ28. AZ28 serves as a positive comparator to show what a validated Src inhibitor should do in these assays. After treatment with compound, cells were lysed, subjected to PAGE and probed with a battery of antibodies. […] In addition, off-target protein phosphorylation was also investigated. Further, induction of apoptosis was evaluated via Caspase 3 cleavage. Multiple doses of each compound were tested because the trends in response to increasing drug concentration are the most reliable indicator of activity.
(§3) The same range of multiples of the GI50 for AZ28 in these two cell lines was run as a comparison.

[1] = tested on: total phosphotyrosine levels; assay: total phosphotyrosine levels; type: cell-based; settings: HT29 and c-Src527F/NIH-3T3 cells
Protocol: as §2, §3

PC3-MM2 (Prostate) = assay: growth inhibition, PC3-MM2; type: cell-based, Human; settings: PC3-MM2 (Prostate) cells
[2] = tested on: CCRF-HSB-2 (Adult lymphoblastic leukemia); assay: growth inhibition, CCRF-HSB-2; type: cell-based, Human; settings: read-out: GI50
Ba/F3 + WT BCR-Abl = assay: MTT growth inhibition, Ba/F3 + WT BCR-Abl; type: cell-based; settings: 96 hrs
From the text: (§4) Cultures of Ba/F3 cells were also transfected to express wild-type (WT) Bcr-Abl, E255K mutation of Bcr-Abl, or T315I mutation of Bcr-Abl and cultured in 96-well plates in complete media without IL-3. The Ba/F3 cell line is rendered Gleevec resistant when the mutation in the Bcr/Abl tyrosine kinase […] is present. […] All assays are in triplicate.

[3] = tested on: Ba/F3 + BCR-Abl E225K mutant; assay: MTT growth inhibition, Ba/F3 + BCR-Abl E225K; type: cell-based; settings: 96 hrs
From the text: as §4

SW1088 = assay: brain tumor cell growth inhibition, SW1088; type: cell-based, Human; settings: SW1088, astrocytoma; read-out: IC50 (title: GI50)
LN-18 = assay: brain tumor cell growth inhibition, LN-18; type: cell-based, Human; settings: LN-18, glioblastoma; glioma; read-out: IC50 (title: GI50)
U87 = assay: brain tumor cell growth inhibition, U87; type: cell-based, Human; settings: U87, glioblastoma; astrocytoma; read-out: IC50 (title: GI50)
786-O = assay: renal tumor cell growth inhibition, 786-O; type: cell-based, Human; settings: renal cell adenocarcinoma
Protocol: These GI50s were determined using standard tumor growth inhibition assays, similar to those described in detail in this Example 7.

H226 = assay: MTT growth inhibition, Dasatinib-resistant H226; type: cell-based, human; settings: H226, 8.0×10^3 cells/well, […] FBS, 78 Hr
Protocol: (§5) Cell proliferation/growth inhibition was assessed using MTT colorimetric assay.
(§6) On Day 3, 10 μL MTT (5 mg/mL) was added to each well. Cells were then incubated in the presence of MTT for 4 hours at 37° C., appropriate CO2 conditions. After this incubation period, 90 μL 10% SDS(+HCl) was added to each well to lyse cells and solubilize formazan. Cells were then incubated overnight at 37° C., appropriate CO2 conditions.
(§7) The OD570 was measured using microplate reader. Growth inhibition curves and EC50/IC50 was determined using GraphPad Prism 4 statistical software.

COLO-320DM = assay: MTT growth inhibition, Dasatinib-resistant COLO-320DM; type: cell-based, human; settings: 8.0×10^3 cells/well, […] FBS, 78 Hr
Protocol: as §5, §6, §7

HCT116 = assay: MTT growth inhibition, Dasatinib-resistant HCT116; type: cell-based, human; settings: HCT116, 8.0×10^3 cells/well, […] FBS, 78 Hr
Protocol: as §5, §6, §7

[4] = tested on: Src-Y416 autophosphorylation; assay: intracellular phosphorylation, Src autophosphorylation; type: cell-based; settings: HT29 and c-Src527F/NIH-3T3 cells, 0.2×-25× GI50
Protocol: as §2, §3

JAK1 Y1022/1023 = assay: whole cell phosphorylation, JAK1; type: cell-based; settings: whole cells
JAK2 Y1007/1008 = assay: whole cell phosphorylation, JAK2; type: cell-based; settings: whole cells
Lyn Y416 = assay: whole cell phosphorylation, Lyn; type: cell-based; settings: whole cells
Bcr/Abl &245 = assay: whole cell phosphorylation, Bcr/Abl; type: cell-based; settings: whole cells
[5] = tested on: PC3-MM2 prostate cancer cells; assay: orthotopic prostate model for in vivo metastases; design: species or system Nu/Nu mice
Protocol: Nu/Nu mice (8-12 weeks of age) were injected with PC3-MM2 prostate cancer cells into the prostate as described previously in Pettaway et al., Clin Cancer Res 1996, 2:1627-1636, hereby incorporated herein by reference in its entirety. […] All mice were sacrificed by cervical dislocation on about day 42. Tumor volume (measured by caliper), weight, and incidence of regional (celiac or para-aortal) lymph node metastases were recorded.

[6] = tested on: HT29 (human colon cancer); settings: KXO1 2.0 and 4 mg/kg bid vs Dasatinib 25 then 15 mg/kg bid, 28 days

Chain of EGFR(h) (P00533 25-1210): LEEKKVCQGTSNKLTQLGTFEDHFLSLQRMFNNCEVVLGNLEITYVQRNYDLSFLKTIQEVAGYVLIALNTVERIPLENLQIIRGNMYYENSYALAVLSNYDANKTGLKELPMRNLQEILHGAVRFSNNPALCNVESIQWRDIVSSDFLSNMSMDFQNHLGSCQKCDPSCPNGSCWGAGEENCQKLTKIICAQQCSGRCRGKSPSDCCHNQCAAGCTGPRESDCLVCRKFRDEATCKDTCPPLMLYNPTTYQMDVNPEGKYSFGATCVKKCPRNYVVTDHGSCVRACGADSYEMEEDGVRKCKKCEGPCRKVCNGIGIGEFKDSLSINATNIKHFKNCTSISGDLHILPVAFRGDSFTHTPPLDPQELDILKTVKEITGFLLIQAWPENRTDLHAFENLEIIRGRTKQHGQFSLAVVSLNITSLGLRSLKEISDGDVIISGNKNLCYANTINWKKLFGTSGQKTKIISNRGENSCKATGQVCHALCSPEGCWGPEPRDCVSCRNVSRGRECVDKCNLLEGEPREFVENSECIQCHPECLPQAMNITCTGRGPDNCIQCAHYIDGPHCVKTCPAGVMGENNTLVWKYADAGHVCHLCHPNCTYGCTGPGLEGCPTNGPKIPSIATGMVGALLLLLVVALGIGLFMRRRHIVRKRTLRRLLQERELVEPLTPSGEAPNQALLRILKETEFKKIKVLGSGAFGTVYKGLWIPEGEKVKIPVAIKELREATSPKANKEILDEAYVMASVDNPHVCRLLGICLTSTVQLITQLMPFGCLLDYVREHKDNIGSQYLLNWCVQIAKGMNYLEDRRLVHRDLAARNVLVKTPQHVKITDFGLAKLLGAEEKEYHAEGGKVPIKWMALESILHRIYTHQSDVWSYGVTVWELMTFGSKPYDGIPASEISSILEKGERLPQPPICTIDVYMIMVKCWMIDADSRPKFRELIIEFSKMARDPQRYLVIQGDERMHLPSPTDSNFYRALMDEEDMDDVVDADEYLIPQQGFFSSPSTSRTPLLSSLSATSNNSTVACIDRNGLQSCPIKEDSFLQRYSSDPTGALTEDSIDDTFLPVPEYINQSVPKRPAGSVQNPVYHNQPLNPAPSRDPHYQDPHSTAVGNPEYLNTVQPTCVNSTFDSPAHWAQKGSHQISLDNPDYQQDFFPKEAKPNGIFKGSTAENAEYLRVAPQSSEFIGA

SMILES: O=C(Cc1ccc(-c2ccc(OCCN3CCOCC3)cc2)cn1)NCc1ccccc1 [KX2-391]
- percent activity of isolated kinase relative to control (EGFR(h)): 134%
- percent activity of isolated kinase relative to control (FGFR2(h)): 94%
- percent activity of isolated kinase relative to control (IGF-1R(h)): 101%
- percent activity of isolated kinase relative to control (IR(h)): 112%
- percent activity of isolated kinase relative to control (MAPK2(h)): 112%
- percent activity of isolated kinase relative to control (PDGFRβ(h)): 110%
- percent activity of isolated kinase relative to control (Yes(h)): 92%
- percent activity of isolated kinase relative to control (PI3 kinase): 100%
- phosphorylation of Paxillin Y-31 (Src transphosphorylation) (Paxillin Y-31): inhibited
- total phosphotyrosine levels [1]: reduction in the total phosphotyrosine levels

SMILES: O=C(Cc1ccc(-c2ccc(OCCN3CCOCC3)cc2)cn1)NCc1ccccc1 [KXO1]
- GI50 (PC3-MM2 (Prostate)): 8.9 nM
- GI50 [2]: 12 nM
- GI50 (Ba/F3 + WT BCR-Abl): 85 nM
- GI50 [3]: 80 nM
- IC50 (SW1088): 76.1 nM
- IC50 (LN-18): 14.5 nM
- IC50 (U87): 33.1 nM
- GI50 (786-O): 378 nM
- IC50 (H226): 98 nM
- IC80 (H226): 277 nM
- IC90 (H226): 490 nM
- IC50 (COLO-320DM): 30 nM
- IC80 (COLO-320DM): 80 nM
- IC90 (COLO-320DM): 144 nM
- IC50 (HCT116): 31 nM
- IC80 (HCT116): 106 nM
- IC90 (HCT116): 195 nM
- Src-Y416 autophosphorylation [4]: potent inhibitor
- phosphorylation of JAK1 Y1022/1023 (JAK1 Y1022/1023): not inhibited
- phosphorylation of JAK2 Y1007/1008 (JAK2 Y1007/1008): not inhibited
- phosphorylation of Lyn Y416 (Lyn Y416): inhibited less potently
- phosphorylation of Bcr/Abl &245 (Bcr/Abl &245): inhibited less potently
- LN metastasis ([5]; 5.0 mg/kg/day oral gavage): 4/5
- Tumor incidence ([5]; 5.0 mg/kg/day oral gavage): 5/6
- Tumor weight (g) Median ([5]; 5.0 mg/kg/day oral gavage): 1.16 g
- LN metastasis ([5]; 10.0 mg/kg/day oral gavage): 2/5
- Tumor incidence ([5]; 10.0 mg/kg/day oral gavage): 5/6
- Tumor weight (g) Median ([5]; 10.0 mg/kg/day oral gavage): 0.35 g
- oral potency in staged HT29 mouse xenografts [6]: higher oral potency
